According to patent publication US11319299B2, “Substituted carboxamides as inhibitors of WDR5 protein-protein binding” (PROPELLON THERAPEUTICS INC., priority 2016, dated 2022):
pKd: −log10 of the molar value.

Target: WDR5 (Homo sapiens (Human), UniProt P61964)
Experiment: Surface Plasmon Resonance (SPR) assay, KD and residence time
Assay type: binding
Conditions: surface plasmon resonance (SPR); read-out: WDR5 binding affinity (KD)

SMILES | pKd
C[C@@H]1CN(c2cc(F)c(-c3cc(C(N)=O)c(F)cc3F)cc2NC(=O)c2c[nH]c(=O)cc2C(F)(F)F)C[C@H](C)N1C [Example 632, N-[5-(5-carbamoyl-2,4-difluorophenyl)-4-fluoro-2-[(3R,5S)-3,4,5-trimethylpiperazin-1-yl]phenyl]-6-oxo-4-(trifluoromethyl)-1H-pyridine-3-carboxamide] | 7.94
C[C@@H]1CN(c2cc(F)c(-c3cc(C(N)=O)c(F)cc3F)cc2NC(=O)c2c[nH]c(=O)cc2C(F)F)C[C@H](C)N1C [Example 633, N-[5-(5-carbamoyl-2,4-difluorophenyl)-4-fluoro-2-[(3R,5S)-3,4,5-trimethylpiperazin-1-yl]phenyl]-4-(difluoromethyl)-6-oxo-1H-pyridine-3-carboxamide] | 7.92
C[C@@H]1CN(c2cc(F)c(-c3cc(C(N)=O)c(F)cc3F)cc2NC(=O)c2ccc(F)cc2C(F)(F)F)C[C@H](C)N1C [Example 634, 2,4-difluoro-5-[2-fluoro-5-[[4-fluoro-2-(trifluoromethyl)benzoyl]amino]-4-[(3R,5S)-3,4,5-trimethylpiperazin-1-yl]phenyl]benzamide] | 7.16
C[C@@H]1CN(c2cc(F)c(-c3cnc(N4CCC(C)(O)CC4)nc3)cc2NC(=O)c2ccc(F)cc2C(F)(F)F)C[C@H](C)N1C [Example 636, 4-Fluoro-N-[4-fluoro-5-[2-(4-hydroxy-4-methylpiperidin-1-yl)pyrimidin-5-yl]-2-[(3R,5S)-3,4,5-trimethylpiperazin-1-yl]phenyl]-2-(trifluoromethyl)benzamide] | 8.85
C[C@@H]1CN(c2cc(F)c(C3=CCN(C(=O)OC4CC(F)(F)C4)C3)cc2NC(=O)c2c[nH]c(=O)cc2C(F)F)C[C@H](C)N1C [Example 637, 3,3-Difluorocyclobutyl 3-(5-(4-(difluoromethyl)-6-oxo-1,6-dihydropyridine-3-carboxamido)-2-fluoro-4-((3S,5R)-3,4,5-trimethylpiperazin-1-yl)phenyl)-2,5-dihydro-1H-pyrrole-1-carboxylate] | 8.65
C[C@H]1CN(c2cc(F)c(C3=CCN(C(=O)OC4CC(F)(F)C4)C3)cc2NC(=O)c2c[nH]c(=O)cc2C(F)F)CCN1C [Example 638, 3,3-Difluorocyclobutyl (S)-3-(5-(4-(difluoromethyl)-6-oxo-1,6-dihydropyridine-3-carboxamido)-4-(3,4-dimethylpiperazin-1-yl)-2-fluorophenyl)-2,5-dihydro-1H-pyrrole-1-carboxylate] | 8.64
C[C@H]1CN(c2cc(F)c(C3=CCN(c4cnc(C#N)nc4)CC3)cc2NC(=O)c2c[nH]c(=O)cc2C(F)F)CCN1C [Example 639, (S)—N-(5-(1-(2-cyanopyrimidin-5-yl)-1,2,3,6-tetrahydropyridin-4-yl)-2-(3,4-dimethylpiperazin-1-yl)-4-fluorophenyl)-4-(difluoromethyl)-6-oxo-1,6-dihydropyridine-3-carboxamide] | 8.30
C[C@@H]1CN(c2ncc(-c3cc(NC(=O)c4cn(C)c(=O)cc4C(F)(F)F)c(N4C[C@@H](C)N(C)[C@@H](C)C4)cc3F)cn2)CCO1 [Example 640, N-[4-fluoro-5-[2-[(2R)-2-methylmorpholin-4-yl]pyrimidin-5-yl]-2-[(3R,5S)-3,4,5-trimethylpiperazin-1-yl]phenyl]-1-methyl-6-oxo-4-(trifluoromethyl)pyridine-3-carboxamide] | 8.76
C[C@@H]1CN(c2cc(F)c(-c3cnc(N4CCC(C)(O)CC4)nc3)cc2NC(=O)c2cn(C)c(=O)cc2C(F)(F)F)C[C@H](C)N1C [Example 641, N-[4-fluoro-5-[2-(4-hydroxy-4-methylpiperidin-1-yl)pyrimidin-5-yl]-2-[(3R,5S)-3,4,5-trimethylpiperazin-1-yl]phenyl]-1-methyl-6-oxo-4-(trifluoromethyl)pyridine-3-carboxamide] | 8.72
C[C@@H]1CN(c2cc(F)c(C3=CCCN(c4nc(C#N)cs4)C3)cc2NC(=O)c2c[nH]c(=O)cc2C(F)(F)F)C[C@H](C)N1C [Example 642, N-[5-[1-(4-cyano-1,3-thiazol-2-yl)-3,6-dihydro-2H-pyridin-5-yl]-4-fluoro-2-[(3R,5S)-3,4,5-trimethylpiperazin-1-yl]phenyl]-6-oxo-4-(trifluoromethyl)-1H-pyridine-3-carboxamide] | 8.89
C[C@@H]1CN(c2cc(F)c(C3=CCCN(c4ncco4)C3)cc2NC(=O)c2c[nH]c(=O)cc2C(F)(F)F)C[C@H](C)N1C [Example 643, N-[4-fluoro-5-[1-(1,3-oxazol-2-yl)-3,6-dihydro-2H-pyridin-5-yl]-2-[(3R5S)-3,4,5-trimethylpiperazin-1-yl]phenyl]-6-oxo-4-(trifluoromethyl)-H-pyridine-3-carboxamide] | 8.90
C[C@@H]1CN(c2cc(F)c(C3=CCCN(c4ncccn4)C3)cc2NC(=O)c2c[nH]c(=O)cc2C(F)F)C[C@H](C)N1C [Example 644, 4-(difluoromethyl)-N-[4-fluoro-5-(1-pyrimidin-2-yl-3,6-dihydro-2H-pyridin-5-yl)-2-[(3R,5S)-3,4,5-trimethylpiperazin-1-yl]phenyl]-6-oxo-1H-pyridine-3-carboxamide] | 8.88
COc1cnc(N2CCC=C(c3cc(NC(=O)c4c[nH]c(=O)cc4C(F)F)c(N4C[C@@H](C)N(C)[C@@H](C)C4)cc3F)C2)nc1 [Example 645, 4-(difluoromethyl)-N-[4-fluoro-5-[1-(5-methoxypyrimidin-2-yl)-3,6-dihydro-2H-pyridin-5-yl]-2-[(3R,5S)-3,4,5-trimethylpiperazin-1-yl]phenyl]-6-oxo-1H-pyridine-3-carboxamide] | 8.85

Now from value to molecule:

pKd | SMILES
8.85 | C[C@@H]1CN(c2cc(F)c(C3=CCN(c4ncc(C=O)cn4)CC3)cc2NC(=O)c2c[nH]c(=O)cc2C(F)F)C[C@H](C)N1C [Example 646, 4-(difluoromethyl)-N-[4-fluoro-5-[1-(5-formylpyrimidin-2-yl)-3,6-dihydro-2H-pyridin-4-yl]-2-[(3R,5S)-3,4,5-trimethylpiperazin-1-yl]phenyl]-6-oxo-1H-pyridine-3-carboxamide]
8.80 | COc1cc(N2CC=C(c3cc(NC(=O)c4c[nH]c(=O)cc4C(F)F)c(N4C[C@@H](C)N(C)[C@@H](C)C4)cc3F)CC2)ncn1 [Example 647, 4-(difluoromethyl)-N-[4-fluoro-5-[1-(6-methoxypyrimidin-4-yl)-3,6-dihydro-2H-pyridin-4-yl]-2-[(3R,5S)-3,4,5-trimethylpiperazin-1-yl]phenyl]-6-oxo-1H-pyridine-3-carboxamide]
8.71 | CCOC(=O)N1CCC=C(c2cc(NC(=O)c3c[nH]c(=O)cc3C(F)F)c(N3C[C@@H](C)N(C)[C@@H](C)C3)cc2F)C1 [Example 648, Ethyl 5-[5-[[4-(difluoromethyl)-6-oxo-1H-pyridine-3-carbonyl]amino]-2-fluoro-4-[(3R,5S)-3,4,5-trimethylpiperazin-1-yl]phenyl]-3,6-dihydro-2H-pyridine-1-carboxylate]
9.05 | C[C@@H]1CN(c2cc(F)c(C3=CCN(C(=O)OC4(C)CCC4)CC3)cc2NC(=O)c2c[nH]c(=O)cc2C(F)F)C[C@H](C)N1C [Example 651, (1-methylcyclobutyl) 4-[5-[[4-(difluoromethyl)-6-oxo-1H-pyridine-3-carbonyl]amino]-2-fluoro-4-[(3R,5S)-3,4,5-trimethylpiperazin-1-yl]phenyl]-3,6-dihydro-2H-pyridine-1-carboxylate]
8.26 | C[C@@H]1CN(c2cc(F)c(-c3cc(F)c(C(N)=O)c(F)c3)cc2NC(=O)c2ccc(F)cc2C(F)(F)F)C[C@H](C)N1C [Example 656, 2,6-difluoro-4-[2-fluoro-5-[[4-fluoro-2-(trifluoromethyl)benzoyl]amino]-4-[(3R,5S)-3,4,5-trimethylpiperazin-1-yl]phenyl]benzamide]
8.73 | C[C@@H]1CN(c2cc(F)c(-c3cc(F)c(C(N)=O)c(F)c3)cc2NC(=O)c2c[nH]c(=O)cc2C(F)(F)F)C[C@H](C)N1C [Example 658, N-[5-(4-carbamoyl-3,5-difluorophenyl)-4-fluoro-2-[(3R,5S)-3,4,5-trimethylpiperazin-1-yl]phenyl]-6-oxo-4-(trifluoromethyl)-1H-pyridine-3-carboxamide]
8.71 | C[C@@H]1CN(c2cc(F)c(-c3cc(F)c(C(N)=O)c(F)c3)cc2NC(=O)c2c[nH]c(=O)cc2C(F)F)C[C@H](C)N1C [Example 659, N-[5-(4-carbamoyl-3,5-difluorophenyl)-4-fluoro-2-[(3R,5S)-3,4,5-trimethylpiperazin-1-yl]phenyl]-4-(difluoromethyl)-6-oxo-1H-pyridine-3-carboxamide]
8.49 | CC(C)N1CCN(c2ncc(-c3cc(NC(=O)c4cn(C)c(=O)cc4C(F)(F)F)c(N4C[C@@H](C)N(C)[C@@H](C)C4)cc3F)cn2)CC1 [Example 661, N-[4-fluoro-5-[2-(4-propan-2-ylpiperazin-1-yl)pyrimidin-5-yl]-2-[(3R,5S)-3,4,5-trimethylpiperazin-1-yl]phenyl]-1-methyl-6-oxo-4-(trifluoromethyl)pyridine-3-carboxamide]
8.64 | C[C@@H]1CN(c2cc(F)c(-c3cnc(N4CCOC(C)(C)C4)nc3)cc2NC(=O)c2cn(C)c(=O)cc2C(F)(F)F)C[C@H](C)N1C [Example 662, N-[5-[2-(2,2-dimethylmorpholin-4-yl)pyrimidin-5-yl]-4-fluoro-2-[(3R,5S)-3,4,5-trimethylpiperazin-1-yl]phenyl]-1-methyl-6-oxo-4-(trifluoromethyl)pyridine-3-carboxamide]
6.82 | C[C@@H]1CN(c2cc(F)c(-c3ccc(C(=O)NC(C)(C)CC(C)(C)C)c(F)c3F)cc2NC(=O)c2ccc(F)cc2C(F)(F)F)C[C@H](C)N1C [Example 665, 2,3-difluoro-4-[2-fluoro-5-[[4-fluoro-2-(trifluoromethyl)benzoyl]amino]-4-[(3R,5S)-3,4,5-trimethylpiperazin-1-yl]phenyl]-N-(2,4,4-trimethylpentan-2-yl)benzamide]
8.02 | C[C@@H]1CN(c2cc(F)c(-c3ccc(C(N)=O)c(F)c3F)cc2NC(=O)c2ccc(F)cc2C(F)(F)F)C[C@H](C)N1C [Example 667, 2,3-difluoro-4-[2-fluoro-5-[[4-fluoro-2-(trifluoromethyl)benzoyl]amino]-4-[(3R,5S)-3,4,5-trimethylpiperazin-1-yl]phenyl]benzamide]
